Results: patent US12257290B2, “PIC1 inhibition of myeloperoxidase oxidative activity in an animal model” (priority 2018, dated 2025)
Ends that are not written are not given here.

Legend:
human neutrophils [1] = experiment: PMA-initiated NET formation by human neutrophils (fluorescence microscopy, PicoGreen free DNA); format: cell-based; conditions: 5 mM PA-dPEG24, PMA + hydrogen peroxide
Method: (§1) Neutrophils from the blood of healthy volunteers were purified from heparinized blood by Hypaque-Ficoll step gradient centrifugation, dextran sedimentation, and hypotonic lysis, as previously described.
(§2) A Neutrophil Extracellular Trap assay was performed in a microtiter plate as follows. The formation of NETs was induced by incubating 2.0×10^5 neutrophils in a 96 well tissue culture plates with RPMI media alone, or adding 0.05% of H2O2, or 12 nM PMA, or 8 μg/ml MPO, or PA-dPEG24 at various concentrations. For immune complex sera induced NET formation, activated sera was made by adding 5 μl of ovalbumin-anti-ovalbumin immune complex to 5% NHS in 0.3 ml of GVBS^++. This combination was allowed to incubate for 30 minutes at 37° C., and then 0.05 ml was added to the neutrophils in RPMI. Cells were then incubated for 1.5 hours at 37° C. in 5% CO2 incubator.
NET formation was quantitatively assayed as follows. Free DNA was measured by PicoGreen in the supernatant recovered from the NET microtiter plate well assay. Five hundred units of […] (Fisher) were added to each well to allow for digestion of released extracellular DNA for 10 minutes in 37° C. incubator. […] The fluorescence was then quantified on a BioTek microplate reader at Excitation 485 nm/Emission 528 nm.
NET formation was assayed by fluorescence microscopy. […]

human neutrophils [2] = experiment: MPO-initiated NET formation by human neutrophils (fluorescence microscopy, PicoGreen free DNA); format: cell-based; conditions: for reduction in free DNA (PicoGreen): vs MPO with no inhibitor
Method: as §1, §2
NET formation was quantitatively assayed as follows. Free DNA was measured by PicoGreen in the supernatant recovered from the NET microtiter plate well assay. Five hundred units of […] (Fisher) were added to each well to allow for digestion of released extracellular DNA for 10 minutes in 37° C. incubator. The preparation was then aliquoted into an adjacent well and mixed 1:1 with prepared PICO green reagent (Fisher). The fluorescence was then quantified on a BioTek microplate reader at Excitation 485 nm/Emission 528 nm.
NET formation was assayed by fluorescence microscopy. Purified human neutrophils were assayed on a glass slide as follows. Cells were combined with RPMI media and the indicated stimuli as mentioned above in a tube and then aliquoted onto a glass slide circled with a hydrophobic slide marker. The slides were incubated for 1.5 hours at 37° C. in a 5% CO2 incubator at 37 degrees for 1.5 hours. Slides were fixed overnight with 4% paraformaldehyde at 4° C.
For all staining, the following conditions were used. Slides were washed in PBS and incubated in blocking solution (2% normal goat serum+2% bovine serum albumin in PBS) for 1 hour at room temperature. Then the slides were incubated with primary antibody at 1:300 in 2% BSA in PBS for 1 hour at room temperature. Slides were washed in PBS 3 times and incubated in fluorescent-labeled secondary antibody at 1:1000 or DAPI (Southern Biotech) at 0.25 pg/ml final in 2% BSA in PBS for 1 hour at room temperature. Slides were then washed 3 times in PBS and were imaged. Cells were visualized using a DP70 Digital Camera (Olympus Center, Valley Forge, PA), mounted on a BX50, Olympus microscope. Staining antibody pairs used were rabbit anti-MPO (Thermo Scientific) and rabbit anti-Histone H3 (Abcam) with the secondary goat anti-rabbit Alexa Fluor 488 (Novus Biologicals). […]

[3] = system: complement activation in normal human serum (NHS); experiment: Ovalbumin-antiovalbumin immune complex-initiated complement activation in normal human serum (C5a, iC3b, SC5b-9 ELISA); format: biochemical
Method: Immune complex activation of NHS was performed as follows. NHS was stimulated with three different types of immune complexes (IC) to induce complement activation. Heat-aggregated IgG was generated by incubating intravenous immune globulin at 50 mg/ml at 63° C. for 30 min [26]. Ovalbumin-antiovalbumin immune complexes were made by incubating 0.01 ml anti-ovalbumin antibody with an equal volume of ovalbumin, at 0.25 mg/nil, at 37° C. for 30 minutes and then storing at 4° C. overnight. C1 immune complexes were formed by incubating 0.02 ml anti-C1q goat sera with 5 μl of C1, at 200 μg/ml, at 30° C. for 30 minutes and then placing in an ice water bath. For C5a and C5b-9 assays, activation of NHS was performed by pre-incubating 5% NHS with titrating concentrations of PA-dPEG24 in 0.3 ml of GVBS^++ buffer for 30 minutes at room temperature. […]
ELISA was performed as follows. […] Colorimetric detection was performed with TMB, stopped with H2SO4 and read on a BioTek Synergy HT plate reader at 450 nm.
To provide confirmation of the results with heat-aggregated IgG, the antigen-antibody immune complex most often utilized in animal models of complement activation, ovalbumin and antiovalbumin [27, 28], was then tested. The ovalbumin-antiovalbumin immune complexes were used to stimulate complement activation in NHS and the same three effectors, C5a, iC3b and C5b-9, were measured. […]

Substance: IALILEPICCQERAA-dPEG24 (cysteine pairing not given here) [PA-dPEG24, 15-amino acid PEGylated peptide, 24 PEG moieties at the C-terminus]
- NETs identified by fluorescence microscopy (human neutrophils [1]): did not generate NETs
- inhibition of free DNA elaboration (PicoGreen) (human neutrophils [1]; vs no inhibitor, P=0.01): 2.6 fold
- reduction in free DNA (PicoGreen) (human neutrophils [2]; 1.1 mM PA-dPEG24, P=0.02): 30%
- reduction in free DNA (PicoGreen) (human neutrophils [2]; 4.5 mM PA-dPEG24, P=0.001): 3.7 fold
- NET formation by fluorescence microscopy (human neutrophils [2]; 5 mM PA-dPEG24, MPO + hydrogen peroxide): blocked
- appearance of neutrophils incubated with PA-dPEG24 alone, fluorescence microscopy (human neutrophils [2]; PA-dPEG24 only, no stimulus): appeared normal
- measured SC5b-9 ([3]; 2 mM PA-dPEG24): at the lower limit of detection
- PA-dPEG24 concentration giving statistically significant inhibition of each complement effector (C5a, iC3b, C5b-9) ([3]; ovalbumin-antiovalbumin in NHS, P<0.03 vs immune complex alone): ≥ 0.25 mM
